Entries after “also recorded” stand apart in the source; their conditions may differ. Ends that are not written are not given here.
biological target: HLA-A24 molecule (product of the HLA-A*2402 gene) (Homo sapiens, UniProt P04439, D101N/D140Y/D185E/E176V/E190D/F33S/G103R/G107R/I119L/I121M/I306V/K335N/L105A/L180Q/L300P/N151K/N90K/Q86E/Q94H/R106L/R138H/R89G/T104I/T345S/V100E/W191G/Y123F); experiment: Experiment of binding peptide to HLA-A24 molecule (C1R-A24 cells, flow cytometry); conditions: not given

Row | Sequence | binding in HLA molecule binding experiment
1 | FWAKMMYNF [SEQ ID NO: 14] | high binding

tested on: peptide-loaded C1R-A24 cells and T2-A24 cells; experiment: Cytotoxic T-cell induction experiment (51Cr release, human PBMCs); assay type: cell-based; conditions: peptide 1 μM; blood samples from 8 (or 7) people; E/T ratio 10 to 20; FIG. 2 and FIG. 3
Experimental: The following experiment was carried out using a human blood sample.
Blood was sampled from a hepatitis C patient or a healthy individual from whom informed consent had been obtained in advance.
To blood cells (Peripheral blood mononuclear cells: PBMCs) sown on 96 well plates peptides of SEQ ID NOS: 1 to 14 were added weekly for 5 weeks so as to give final concentrations of 1 μM, and cytotoxic T-cells were activated in media to which was added 10% FCS and 5 ng/mL of IL-2, thus giving T-cell samples.
Cells were labeled with ^51Cr by adding the sodium salt of ^51Cr (sodium chromate) to C1R-A24 cells and T2-A24 cells (human B/T cultured cell strain having no TAP peptide transporter and expressing the HLA-A*2402 gene: supplied by Dr. Tsuboi, Faculty of Medicine, Osaka University) at 37° C. or 26° C. for 1 hour. Peptides of SEQ ID NOS: 1 to 14 were added thereto so as to make final concentrations of 1 μM, thus forming target cells having each peptide binding to the surface of the cells.
After the cytotoxic T-cells and the target cells prepared above were mixed at an E/T ratio (effector to target) of 10 to 20 and allowed to stand at 37° C. for 3.5 hours, the radioactivity of ^51Cr released in the culture supernatant was measured.

Row | Sequence | capability of inducing cytotoxic T-cells
2 | FWAKMMYNF [SEQ ID NO: 14] | did not show a capability of inducing cytotoxic T-cells; also recorded: none of the blood samples showed a capability of inducing cytotoxic T-cells

tested on: HCV genome-expressing RzM6 cells; experiment: Cytolysis assay against HCV genome-expressing cells; assay type: cell-based, human; conditions: RzM6 cells vs HepG2 control; E/T ratio 10; 3 hours; FIG. 4
Source text: RzM6 cells were formed by transfecting HepG2, which is a human liver cell strain, with an HCV gene that had been modified so as to be able to conditionally induce expression of an HCV1b full genome (AY045702) in the presence of Cre (Activation of the CK1-CDK-Rb-E2F pathway in full genome hepatitis C virus-expressing cells. Tsukiyama-Kohara et al., J. Biol. Chem. 279, 14531-14541, 2004, RzM6 being supplied by Dr. Michinori Obara, Tokyo Metropolitan Institute of Medical Science).
In the HCV expression method, since the same RzM6 cells are doubly transfected with the Cre gene inserted in a conditional expression cassette arranged downstream of a Tamoxifen-inducible promoter, by adding tamoxifen, expression of Cre is induced, and as a result expression of the HCV gene can be induced. The RzM6 cells for which expression of the HCV gene was induced were labeled with ^51Cr by the same method as for the C1R-A24 cells, thus serving as target cells.
The cytotoxic T-cells prepared above and RzM6 target cells or HepG2 cells with no HCV introduced as a control were mixed at an E/T ratio of 10 and allowed to stand at 37° C. for 3 hours, and the radioactivity of ^51Cr released into the culture supernatant was measured.

Row | Sequence | cytolytic activity specific to HCV-expressing cells by the cytotoxic T-cells
3 | WHYPCTVNF [SEQ ID NO: 2] | a cytolytic activity specific to HCV-expressing cells by the cytotoxic T-cells was exhibited
4 | ILPCSFTTL [SEQ ID NO: 4] | a cytolytic activity specific to HCV-expressing cells by the cytotoxic T-cells was exhibited
5 | ITYSTYCKF [SEQ ID NO: 9] | a cytolytic activity specific to HCV-expressing cells by the cytotoxic T-cells was exhibited
6 | SYTWTGALI [SEQ ID NO: 12] | a cytolytic activity specific to HCV-expressing cells by the cytotoxic T-cells was exhibited
7 | ILMTHFFSI [SEQ ID NO: 13] | a cytolytic activity specific to HCV-expressing cells by the cytotoxic T-cells was exhibited
8 | AYSQQTRGL [SEQ ID NO: 8] | a cytolytic activity specific to HCV-expressing cells by the cytotoxic T-cells was exhibited
9 | ALYGVYPLL [SEQ ID NO: 5] | a cytolytic activity specific to HCV-expressing cells by the cytotoxic T-cells was exhibited
10 | RYAPACKPL [SEQ ID NO: 10] | a cytolytic activity specific to HCV-expressing cells by the cytotoxic T-cells was exhibited
